Data published in ChEMBL document CHEMBL1201862, “PubChem BioAssay data set” (2004).
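In this assay, cells in 96-well plates receive the compound at five concentrations for 48 hours. Endpoints are linearly interpolated between the surrounding concentrations. Abbreviation: GI50, concentration required for 50% inhibition of growth.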 Active and inactive are the calls of the source. Rule as the data show it: active = GI50 up to about 1.1 µM and inactive = higher.

How the values were obtained:
Assay in all cases: growth of human tumour cells (NCI), 48 h
KM-20L2 = system: KM-20L2
M19-MEL = system: M19-MEL
RXF 631 = system: RXF 631
LXFL 529 = system: LXFL 529
HOP-18 = system: HOP-18
SNB-78 = system: SNB-78
DMS-114 = system: DMS-114
DLD-1 = system: DLD-1
XF498 = system: XF498

Measured: GI50

O=P1(N(CCCl)CCCl)NCCCO1 (centres undefined) [CYCLOPHOSPHAMIDE ANHYDROUS]
inactive: KM-20L2 > 250 µM | M19-MEL 218 µM | RXF 631 > 250 µM | LXFL 529 > 250 µM | HOP-18 121 µM | SNB-78 > 209 µM | DMS-114 > 250 µM | DLD-1 > 250 µM | XF498 177 µM
